Patent EP4736861A1, “ORAL COMPOSITION CONTAINING INORGANIC POROUS BODY” (Tanabe Pharma Corporation, priority 2023, dated 2025)

How the values were obtained:
[1] = source not stated, cited from earlier work; for pKa: acidic concomitant drugs; for pKa of conjugate acid: basic concomitant drugs
[2] = PBPK parameter; from Shimizu et al.; cited from earlier work
[3] = PBPK model: construction and simulation of plasma concentration and urinary excretion; details: PBPK parameter, mice
Excerpt: For the construction, in vivo data from the vehicle group of the previously described "In Vivo Study Using a Choline-Load Fasted Mouse Model" and in vivo data from the single-dose PK study were used.
The following steps were applied for the construction of the PBPK model. • * The liver-to-plasma partition coefficient, blood cell-to-plasma partition coefficient, and plasma protein unbound fraction for d9-TMA and d9-TMAO were cited from the report by Shimizu et al.^1), assuming no species difference. • * The liver volume and hepatic blood flow rate were cited from the report by Yamashita et al.^2). • * Using the data from the single intravenous dose PK study of d9-TMA and d9-TMAO, the PK parameters for d9-TMA and d9-TMAO were estimated. […] For d9-TMA, assuming that adsorption equilibrium is reached in the gastrointestinal tract, it was considered to follow the formula: inhibition ratio of d9-TMA absorption from gastrointestinal tract = theoretical acid amount of unadsorbed zeolite / (water volume in the colon × dissociation constant + theoretical acid amount of unadsorbed zeolite), and the dissociation constant of zeolite and d9-TMA was calculated. The water volume in the colon was cited from the value in SimCYP (V23) manufactured by Certara.

In the case of `CC(=O)Nc1ccc(CC(=O)O)cc1` [Actarit], the pKa [1] is given as 3.94.

For `Oc1ncnc2[nH]ncc12` [Allopurinol], the pKa [1] is listed as 9.50.

For `NC(=O)N1c2ccccc2C=Cc2ccccc21` [Carbamazepine], the “pKa of conjugate acid” value [1] is listed as 7.

For `COc1ccccc1OCCNCC(O)COc1cccc2[nH]c3ccccc3c12` (stereo not shown) [Carvedilol], the “pKa of conjugate acid” value [1] is given as 7.8.

For `CCC[C@@H]1C[C@@H](C(=O)N[C@@H]([C@H]2O[C@H](SC)[C@H](O)[C@@H](O)[C@H]2O)[C@@H](C)O)N(C)C1` [Lincomycin], the “pKa of conjugate acid” value [1] is listed as 7.6.

For `CC12CC3CC(C)(C1)CC(N)(C3)C2` [Memantine], the “pKa of conjugate acid” value [1] is given as 10.58.

In the case of `Cc1ncc([N+](=O)[O-])n1CCO` [Metronidazole], the “pKa of conjugate acid” value [1] is listed as 2.6.

For `Clc1ccc(COC(Cn2ccnc2)c2ccc(Cl)cc2Cl)c(Cl)c1` (stereo not shown) [Miconazole], the “pKa of conjugate acid” value [1] is listed as 5.65.

For `OCCN1C[C@H](O)[C@@H](O)[C@H](O)[C@H]1CO` [Miglitol], the “pKa of conjugate acid” value [1] is given as 5.9.

For `CN1CCN2c3ncccc3Cc3ccccc3C2C1` (stereo not shown) [Mirtazapine], the “pKa of conjugate acid” value [1] is listed as 3.71.

In the case of `Cc1nccn1CC1CCc2c(c3ccccc3n2C)C1=O` (stereo not shown) [Ondansetron], the “pKa of conjugate acid” value [1] is listed as 7.4.

For `CCOC(=O)C1=C[C@@H](OC(CC)CC)[C@H](NC(C)=O)[C@@H](N)C1` [Oseltamivir], the “pKa of conjugate acid” value [1] is given as 7.75.

In the case of `[2H]C([2H])([2H])[N+]([O-])(C([2H])([2H])[2H])C([2H])([2H])[2H]` [d9-TMAO], the “blood cell-to-plasma partition coefficient” value [2] is given as 0.845, the liver-to-plasma partition coefficient [2] is given as 0.675 and the “plasma protein unbound fraction” value [2] is given as 0.714.

For `[2H]C([2H])([2H])N(C([2H])([2H])[2H])C([2H])([2H])[2H]` [d9-TMA], the “blood cell-to-plasma partition coefficient” value [2] is given as 0.719, the liver-to-plasma partition coefficient [2] is given as 0.752 and the “plasma protein unbound fraction” value [2] is given as 0.9.

For `[2H]C([2H])([2H])[N+](CCO)(C([2H])([2H])[2H])C([2H])([2H])[2H].[Cl-]` [d9-choline], the “conversion ratio from d9-choline to d9-TMA” value [3] was 0.9324.
